The text below walks through data of patent publication US11479559B2, “Urea-substituted aromatic ring-linked dioxinoquinoline compounds, preparation method and uses thereof” (BEIJING SCITECH-MQ PHARMACEUTICALS LIMITED, priority 2018, dated 2022).

Where two headings read alike, the source gives them in different places. Some results are limits rather than exact numbers.

One test has as its target VEGFR2 tyrosine kinase (Homo sapiens (Human), UniProt P35968). Description: Assay of small molecular compounds for inhibiting the activity of VEGFR-2 kinase (LANCE TR-FRET).
The target in the next test is RET tyrosine kinase (Homo sapiens (Human), UniProt P07949). Description: Assay of small molecular compounds for inhibiting the activity of RET kinase (LANCE TR-FRET).
Sequence of RET tyrosine kinase (P07949 29-1114): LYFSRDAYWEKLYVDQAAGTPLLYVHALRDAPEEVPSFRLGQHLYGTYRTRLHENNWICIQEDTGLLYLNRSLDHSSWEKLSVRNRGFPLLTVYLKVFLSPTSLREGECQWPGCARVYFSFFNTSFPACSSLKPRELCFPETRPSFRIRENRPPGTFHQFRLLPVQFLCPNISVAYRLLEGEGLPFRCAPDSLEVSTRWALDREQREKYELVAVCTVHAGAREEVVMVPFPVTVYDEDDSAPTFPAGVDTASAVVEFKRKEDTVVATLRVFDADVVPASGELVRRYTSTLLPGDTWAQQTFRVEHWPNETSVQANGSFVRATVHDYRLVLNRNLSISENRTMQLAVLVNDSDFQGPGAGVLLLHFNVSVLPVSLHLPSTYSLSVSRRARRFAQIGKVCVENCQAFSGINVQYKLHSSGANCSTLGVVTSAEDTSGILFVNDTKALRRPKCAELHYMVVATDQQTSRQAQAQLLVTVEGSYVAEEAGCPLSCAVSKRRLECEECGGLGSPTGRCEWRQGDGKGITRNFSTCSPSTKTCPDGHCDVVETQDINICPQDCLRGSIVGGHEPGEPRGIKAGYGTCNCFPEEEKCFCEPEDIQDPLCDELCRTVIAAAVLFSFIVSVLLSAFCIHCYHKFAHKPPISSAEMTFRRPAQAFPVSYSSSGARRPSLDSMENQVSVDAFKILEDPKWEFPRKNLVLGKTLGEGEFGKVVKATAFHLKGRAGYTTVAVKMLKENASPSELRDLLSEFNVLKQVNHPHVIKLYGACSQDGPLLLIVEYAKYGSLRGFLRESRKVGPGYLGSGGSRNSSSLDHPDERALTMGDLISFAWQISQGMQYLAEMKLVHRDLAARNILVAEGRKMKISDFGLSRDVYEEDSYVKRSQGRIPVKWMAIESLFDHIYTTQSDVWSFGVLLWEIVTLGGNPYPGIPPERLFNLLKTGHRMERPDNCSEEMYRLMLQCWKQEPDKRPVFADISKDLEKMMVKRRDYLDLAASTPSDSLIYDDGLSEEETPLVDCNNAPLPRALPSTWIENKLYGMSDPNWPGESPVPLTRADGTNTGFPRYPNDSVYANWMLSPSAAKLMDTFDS

Sequence of VEGFR2 tyrosine kinase (P35968 20-1356): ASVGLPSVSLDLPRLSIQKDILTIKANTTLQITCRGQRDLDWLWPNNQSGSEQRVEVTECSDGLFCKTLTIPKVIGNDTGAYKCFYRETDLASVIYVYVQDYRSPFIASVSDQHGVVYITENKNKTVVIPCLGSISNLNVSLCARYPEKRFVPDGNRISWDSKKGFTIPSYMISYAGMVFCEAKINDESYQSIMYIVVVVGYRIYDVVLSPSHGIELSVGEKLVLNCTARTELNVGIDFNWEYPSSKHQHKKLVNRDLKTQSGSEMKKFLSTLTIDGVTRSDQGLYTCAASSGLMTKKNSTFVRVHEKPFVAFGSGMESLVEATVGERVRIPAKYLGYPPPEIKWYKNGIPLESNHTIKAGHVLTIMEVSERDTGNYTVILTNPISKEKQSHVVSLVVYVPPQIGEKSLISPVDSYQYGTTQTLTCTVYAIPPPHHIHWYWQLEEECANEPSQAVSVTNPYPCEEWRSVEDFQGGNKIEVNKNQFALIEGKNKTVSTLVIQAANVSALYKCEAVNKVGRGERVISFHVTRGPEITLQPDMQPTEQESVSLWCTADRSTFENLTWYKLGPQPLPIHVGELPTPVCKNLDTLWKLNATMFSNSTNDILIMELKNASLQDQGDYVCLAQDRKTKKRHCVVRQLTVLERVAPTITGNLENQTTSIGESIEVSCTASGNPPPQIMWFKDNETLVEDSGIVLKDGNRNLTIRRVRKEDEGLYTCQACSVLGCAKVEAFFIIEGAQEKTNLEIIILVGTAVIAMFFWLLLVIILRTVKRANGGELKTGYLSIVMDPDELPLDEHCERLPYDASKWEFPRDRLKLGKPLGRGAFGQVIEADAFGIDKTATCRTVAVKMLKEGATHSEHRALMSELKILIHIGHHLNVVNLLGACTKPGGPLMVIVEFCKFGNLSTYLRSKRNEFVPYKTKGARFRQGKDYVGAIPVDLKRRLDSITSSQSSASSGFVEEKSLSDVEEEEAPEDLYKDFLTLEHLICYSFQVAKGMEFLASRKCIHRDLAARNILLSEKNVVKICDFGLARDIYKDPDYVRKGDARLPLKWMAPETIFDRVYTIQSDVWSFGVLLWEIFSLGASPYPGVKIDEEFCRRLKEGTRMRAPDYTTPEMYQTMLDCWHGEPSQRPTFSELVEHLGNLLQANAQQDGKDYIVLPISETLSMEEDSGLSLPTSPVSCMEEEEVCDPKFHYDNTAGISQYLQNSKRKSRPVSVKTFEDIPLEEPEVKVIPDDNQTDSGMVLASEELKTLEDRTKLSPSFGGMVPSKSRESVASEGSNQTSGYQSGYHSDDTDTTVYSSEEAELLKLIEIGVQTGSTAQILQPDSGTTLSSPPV
Description for RET tyrosine kinase: (§1) The assay is based on the LANCE TR-FRET technology of Perkin Elmer Inc., and the assay method is as follows:
(§2) 2.5 μL of the gradient-diluted compounds were taken with a transfer pipette to a 384-well plate.
Addition of enzyme: 5 μL of 2× RET kinase solution (concentration was 0.8 nM) was taken with a transfer pipette to the corresponding reaction well of the 384-well plate, mixed well and pre-reacted at room temperature for 30 minutes.
2.5 μL 4× Ultra ULight™-JAK-1 (Tyr1023) Peptide (concentration was 200 nM)/ATP (concentration was 40 μM) mixture was taken with a transfer pipette to the corresponding reaction well of the 384-well plate.
(§3) The final concentration of DMSO in the reaction system was 4%.
(§4) The mixture was mixed well and then centrifuged and reacted at room temperature in dark for 60 min.
(§5) The 384-well plate was placed into the Envision plate reader and the signal was detected using the appropriate program.
Description for VEGFR2 tyrosine kinase: as §1, §2
Addition of enzyme: 5 μL of 2× VEGFR2 kinase solution (concentration was 0.5 nM) was taken with a transfer pipette to the corresponding reaction well of the 384-well plate, mixed well and pre-reacted at room temperature for 30 minutes.
2.5 μL 4× Ultra ULight™-JAK-1 (Tyr1023) Peptide (concentration was 200 nM)/ATP (concentration was 40 μMM) mixture was taken with a transfer pipette to the corresponding reaction well of the 384-well plate.
Negative control: 2.5 μL/well 4× substrate/ATP mixture and 7.5 μL 1× Kinase Assay Buffer were added to the wells of the 384-well plate.
as §3, §4, §5

As for `COc1cc2nccc(Oc3ccc(NC(=O)NC4CC4)c(Cl)c3)c2c2c1OCCO2` [Example 7, 1-(2-chloro-4-((5-methoxy-2,3-dihydro-[1,4]dioxino[2,3-f]quinolin-10-yl)oxy)phenyl)-3-cyclopropylurea], the IC50 on VEGFR2 tyrosine kinase and at RET tyrosine kinase was below 0.05 µM each time.

In the case of `COc1cc2nccc(Oc3ccc(NC(=O)Nc4ccc(Cl)c(C(F)(F)F)c4)cc3F)c2c2c1OCCO2` [Example 5, 1-(4-chloro-3-(trifluoromethyl)phenyl)-3-(3-fluoro-4-((5-methoxy-2,3-dihydro-[1,4]dioxino[2,3-f]quinolin-10-yl)oxy)phenyl)urea], the IC50 on VEGFR2 tyrosine kinase (read-out: VEGFR-2 IC50) is 0.05 to 0.5 µM; at RET tyrosine kinase (read-out: RET IC50), below 0.05 µM.

On to `COCCCOc1cc2nccc(Oc3ccc(NC(=O)NC4CC4)c(Cl)c3)c2c2c1OCCO2` [Example 51, 1-(2-chloro-4-((5-(3-methoxypropoxy)-2,3-dihydro-[1,4]dioxino[2,3-f]quinolin-10-yl)oxy)phenyl)-3-cyclopropylurea], for which the IC50 on VEGFR2 tyrosine kinase (read-out: VEGFR-2 IC50) and on RET tyrosine kinase (read-out: RET IC50) was below 0.05 µM in each case.

For `N#CCCCOc1cc2nccc(Oc3ccc(NC(=O)NC4CC4)c(Cl)c3)c2c2c1OCCO2` [Example 93, 1-(2-chloro-4-((5-(3-cyanopropoxy)-2,3-dihydro-[1,4]dioxino[2,3-f]quinolin-10-yl)oxy)phenyl)-3-cyclopropylurea], the IC50 at VEGFR2 tyrosine kinase (read-out: VEGFR-2 IC50) and at RET tyrosine kinase (read-out: RET IC50) was below 0.05 µM in each case.

Consider `O=C(Nc1ccc(Oc2ccnc3cc(OCCCN4CCCC4)c4c(c23)OCCO4)cc1)Nc1ccc(Cl)c(C(F)(F)F)c1` [Example 18, 1-(4-chloro-3-(trifluoromethyl)phenyl)-3-(4-((5-(3-(pyrrolidin-1-yl)propoxy)-2,3-dihydro-[1,4]dioxino[2,3-f]quinolin-10-yl)oxy)phenyl)urea], for which the concentration for half-maximal inhibition (IC50) on VEGFR2 tyrosine kinase (read-out: VEGFR-2 IC50) and on RET tyrosine kinase (read-out: RET IC50) was below 0.05 µM throughout.

As for `O=C(Nc1ccc(Oc2ccnc3cc(OCCCN4CCOCC4)c4c(c23)OCCO4)cc1)Nc1ccc(F)cc1F` [Example 78, 1-(2,4-difluorophenyl)-3-(4-((5-(3-morpholinopropoxy)-2,3-dihydro-[1,4]dioxino[2,3-f]quinolin-10-yl)oxy)phenyl)urea], the IC50 at VEGFR2 tyrosine kinase (read-out: VEGFR-2 IC50) and at RET tyrosine kinase (read-out: RET IC50) was below 0.05 µM in each case.

On to `CNC(=O)Nc1ccc(Oc2ccnc3cc(OC)c4c(c23)OCCO4)cc1Cl` [Example 79, 1-(2-chloro-4-((5-methoxy-2,3-dihydro-[1,4]dioxino[2,3-f]quinolin-10-yl)oxy)phenyl)-3-methylurea], for which the IC50 on VEGFR2 tyrosine kinase (read-out: VEGFR-2 IC50) and on RET tyrosine kinase (read-out: RET IC50) was below 0.05 µM each time.

Regarding `CN1CCN(CCCOc2cc3nccc(Oc4ccc(NC(=O)NC5CC5)c(Cl)c4)c3c3c2OCCO3)CC1` [Example 56, 1-(2-chloro-4-((5-(3-(4-methylpiperazin-1-yl)propoxy)-2,3-dihydro-[1,4]dioxino[2,3-f]quinolin-10-yl)oxy)phenyl)-3-cyclopropylurea], the IC50 at VEGFR2 tyrosine kinase (read-out: VEGFR-2 IC50) and on RET tyrosine kinase (read-out: RET IC50) was below 0.05 µM in each case.

On to `N#CCOc1cc2nccc(Oc3ccc(NC(=O)NC4CC4)c(Cl)c3)c2c2c1OCCO2` [Example 47, 1-(2-chloro-4-((5-(cyanomethoxy)-2,3-dihydro-[1,4]dioxino[2,3-f]quinolin-10-yl)oxy)phenyl)-3-cyclopropylurea], for which the IC50 on VEGFR2 tyrosine kinase (read-out: VEGFR-2 IC50) and at RET tyrosine kinase (read-out: RET IC50) was below 0.05 µM in each case.

Turning to `COCCN(C)CCCOc1cc2nccc(Oc3ccc(NC(=O)Nc4ccc(Cl)c(C(F)(F)F)c4)cc3)c2c2c1OCCO2` [Example 27, 1-(4-chloro-3-(trifluoromethyl)phenyl)-3-(4-((5-(3-((2-methoxyethyl)(methyl)amino)propoxy)-2,3-dihydro-[1,4]dioxino[2,3-f]quinolin-10-yl)oxy)phenyl)urea], the IC50 against VEGFR2 tyrosine kinase is 0.05 to 0.5 µM; on RET tyrosine kinase (read-out: RET IC50) it was below 0.05 µM.

`O=C(Nc1ccc(F)cc1)Nc1ccc(Oc2ccnc3cc(OCCCN4CCOCC4)c4c(c23)OCCO4)cc1` [Example 77, 1-(4-fluorophenyl)-3-(4-((5-(3-morpholinopropoxy)-2,3-dihydro-[1,4]dioxino[2,3-f]quinolin-10-yl)oxy)phenyl)urea]: the IC50 at VEGFR2 tyrosine kinase (read-out: VEGFR-2 IC50) and on RET tyrosine kinase (read-out: RET IC50) was below 0.05 µM each time.
